Test [1] relates to Pseudomonas aeruginosa PA01.
In test [2] the test system is Pseudomonas aeruginosa PA14.
Test [3] relates to Escherichia coli ATCC 25922.
Test [4] has as its system Escherichia coli K-12 MG1655.
In test [5] the test system is Salmonella enterica typhimurium LT2A TCC 19585.
Test [6] deals with Salmonella enterica Enteritidis AR496.
In test [7] the test system is Acinetobacter baumannii ATCC 19606.
The subject of test [8] is Klebsiella pneumoniae AR347.
The test system of test [9] is Yersinia pseudotuberculosis ATCC 6904.
Test [10] concerns Photorhabdus australis DSM 17609.
In test [11] the test system is Burkholderia cenocepacia ATCC BAA-245.
Test [12] has as its system Enterobacter cloaceae ATCC 13047.
Test [13] concerns Moraxella catarrhalis ATCC 25248.
The subject of test [14] is Shigella sonnei ATCC 25931.
The test system of test [15] is Vibrio vulnificus KLE δ-1125.
The subject of test [16] is Veillonella ratti KLE 2365.
In test [17] the test system is Bacteroides fragilis KLE 2244.
The test system of test [18] is Bacteroides stercoris KLE 2537.
The subject of test [19] is Staphylococcus aureus HG003.
Test [20] relates to Limosilactobaccilus reuteri LTH5448.
Test [21] deals with Clostridium bifermentans KLE 2329.

What is called MIC is the lowest concentration found to suppress growth.

Each structure is given as a SMILES string. “And” between values parts separate entries of the source, which are not always exact repeats. Equal values may be shown once. Read-outs that look alike come from different tables or passages of the source.

As to `CC(C)C(NC(=O)C1NC(=O)C(CO)NC(=O)C(CC(N)=O)NC(=O)C(N)Cc2c[nH]c3cc(ccc23)C1C(N)=O)C(=O)NC1Cc2cn(cn2)C(c2ccc(O)cc2)C(C(=O)NC(CCCNC(=N)N)C(=O)NC(Cc2ccccc2)C(=O)O)NC(=O)C(CO)NC1=O` (stereo not shown) [Formula (I)], the MIC was found to be 8 µg/mL in [1] (Pseudomonas aeruginosa PA01); 16 µg/mL in [2] (Pseudomonas aeruginosa PA14); 16 µg/mL in the test with Escherichia coli MG1655 (Escherichia coli MG1655); 8 µg/mL in the test with Escherichia coli AR350; 8 µg/mL in [3]; 16 µg/mL in test [4]. The MIC in test [5] came to 8 µg/mL; in test [6], 8 µg/mL; in test [7] (Acinetobacter baumannii ATCC 19606), 16 µg/mL; in test [8], 64 µg/mL; in the test with Proteus mirabilis H14320 (Proteus mirabilis H14320), 64 µg/mL; with Proteus mirabilis BB2000 (Proteus mirabilis BB2000) it was 125 µg/mL. Besides, the MIC in test [9] (ATCC 6904) is 8 µg/mL; in test [10] (Photorhabdus australis DSM 17609 (producer strain; listed twice)), 250 µg/mL and >128 µg/mL; in [11], greater than 1000 µg/mL; in [12], 16 µg/mL; in test [13], 2 µg/mL; in test [14] it was 4 µg/mL. In addition, the minimal inhibitory concentration (MIC) was 8 µg/mL in test [15]; 16 µg/mL in [16]; greater than 128 µg/mL in [17]; greater than 128 µg/mL in [18]; greater than 1000 µg/mL in [19] (Staphylococcus aureus HG003); greater than 1000 µg/mL against Bacillus subtilis 168 (Bacillus subtilis 168). Moreover, the MIC in test [20] and in test [21] was greater than 128 µg/mL in each case.
`CC(C)C(NC(=O)C1NC(=O)C(CO)NC(=O)C(CC(N)=O)NC(=O)C(NC(=O)C(CO)NC(=O)C2CCCN2)Cc2c[nH]c3cc(ccc23)C1C(N)=O)C(=O)NC1Cc2cn(cn2)C(c2ccc(O)cc2)C(C(=O)NC(CCCNC(=N)N)C(=O)NC(Cc2ccccc2)C(=O)O)NC(=O)C(CO)NC1=O` (stereo not shown) [Formula (III)]: the minimum inhibitory concentration (MIC) came out at 16 µg/mL in [1]; 32 µg/mL in test [2] (PA14); 8 µg/mL against Escherichia coli MG1655 (MG1655); 16 µg/mL in the test with Escherichia coli AR350; 32 µg/mL in test [6]; 8 µg/mL in [7] (ATCC 19606). The minimal inhibitory concentration (MIC) was 125 µg/mL in [8]; 32 µg/mL against Proteus mirabilis H14320 (H14320); 64 µg/mL with Proteus mirabilis BB2000 (BB2000); 16 µg/mL in test [9] (Yersinia pseudotuberculosis ATCC 6904); 500 µg/mL in test [10] (DSM 17609); greater than 1000 µg/mL in test [11]. In addition, the MIC (in test [19] (HG003); against Bacillus subtilis 168 (168)) was greater than 1000 µg/mL throughout.

The record behind these values is patent publication US20240002442A1, “CYCLIC PEPTIDES WITH ANTIMICROBIAL PROPERTIES” (priority 2020, published 2024).
